In US20250188110A1, “SPECIFIC SMALL MOLECULE INHIBITORS THAT BLOCK KMT9 METHYLTRANSFERASE ACTIVITY AND FUNCTION” (ALBERT-LUDWIGS-UNIVERSITÄT FREIBURG, priority 2021, published 2025) one finds ΔTm, Kd and IC50 data, which are given here for 9 compounds.

For assay [1], the target named is T1, KMT9 (Homo sapiens, UniProt Q9Y5N5).
T1 sequence (Q9Y5N5 1-214): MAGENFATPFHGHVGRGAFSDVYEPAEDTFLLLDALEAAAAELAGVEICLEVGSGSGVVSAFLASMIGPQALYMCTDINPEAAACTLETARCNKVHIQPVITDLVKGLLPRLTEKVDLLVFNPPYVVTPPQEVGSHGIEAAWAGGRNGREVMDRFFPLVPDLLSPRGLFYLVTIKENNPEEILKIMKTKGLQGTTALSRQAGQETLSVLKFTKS
T1 sequence (Q9UI30 1-120 isoform Q9UI30-2 partner): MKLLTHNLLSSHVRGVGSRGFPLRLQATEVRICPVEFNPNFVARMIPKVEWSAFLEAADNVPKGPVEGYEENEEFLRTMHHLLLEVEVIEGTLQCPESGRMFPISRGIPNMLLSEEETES
Briefly: KMT9 thermal shift assay (SyproOrange). In kind it is binding. Conditions: 2 μM KMT9. The method in brief: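 Recombinant KMT9 was incubated with compound and SyproOrange at 25° C in 50 mM BTP pH 8.5, 1 mM MgCl2, 1 mM DTT. It was then heated from 20° C to 95° C at 1° C per 15 s with fluorescence read each step. Tm came from a Boltzmann sigmoidal fit; ΔTm relative to DMSO control, binned in 5 K ranges.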

Assay [2] deals with T1, KMT9. Briefly: Microscale thermophoresis (MST) KMT9 binding. Conditions: His-tag labelled KMT9 20 nM. The method in brief: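 His-tagged KMT9 (20 nM), RED-Tris-NTA labelled, titrated with varying compound concentrations in 25 mM HEPES pH 7.5, 100 mM NaCl, 1 mM DTT, 0.05% Tween. MST at 40% MST and 100% LED power, Nano-RED excitation; Kd binned A ≤10 nM, B 10–100, C 100–1000, D >1000 nM.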
(In general: Microscale thermophoresis detects binding through changes in fluorescence in a small temperature gradient.)

In assay [3] the target is T1, KMT9. The assay is described as follows: KMT9 methyltransferase inhibition assay, MTaseGlo luminescence (from entry 155). In kind it is biochemical. The conditions noted are these: 100 nM KMT9, 5 μM ETF1, 1 μM SAM. The gist of the method: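 KMT9 (100 nM final) pre-incubated with inhibitor for 15 min at room temperature, then reacted with 5 μM ETF1 and 1 μM SAM for 2 h at 30° C. at 2% DMSO final. MTaseGlo luminescence read after 60 min detection; IC50 reported in four potency bins.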

Setting [4] is: ΔTm class, 500 uM compound, read-out: Thermal shift.
[5] abbreviates: IC50 class, MTaseGlo procedure (entries from 155 on), read-out: Inhibition.
The mark [6] stands for this setting: 500 µM compound, read-out: Thermal shift (ΔTm).
[7] abbreviates: MTaseGlo procedure (entries from 155), read-out: Inhibition (IC50).

Like-named read-outs stand apart in the source and are kept apart here.

As for `CN1CCC=C([C@H]2C[C@@H](n3cc(-c4nc(Cc5ccccc5)cs4)c4cnc(Cl)nc43)[C@H](O)[C@@H]2O)C1` [Compound 585, (1R,2S,3R,5R)-3-[5-(4-Benzyl-1,3-thiazol-2-yl)-2-chloropyrrolo[2,3-d]pyrimidin-7-yl]-5-(1-methyl-5,6-dihydro-2H-pyridin-3-yl)cyclopentane-1,2-diol], the ΔTm at 500 µM on KMT9 [1] (setting [4]) fell in the range of 10 to 15 °C. The Kd at KMT9 [2] (Kd class, read-out: MST) lay within 100 to 1000 nM. The IC50 at KMT9 [3] (setting [5]) lay in the range of 1 to 10 µM.
Take `O[C@@H]1[C@H](O)[C@@H](C2=CCCN(CC3CC3)C2)C[C@H]1n1cc(-c2nc(Cc3ccccc3)cs2)c2cnc(Cl)nc21` [Compound 586, (1R,2S,3R,5R)-3-[5-(4-Benzyl-1,3-thiazol-2-yl)-2-chloropyrrolo[2,3-d]pyrimidin-7-yl]-5-[1-(cyclopropylmethyl)-5,6-dihydro-2H-pyridin-3-yl]cyclopentane-1,2-diol]: the ΔTm at 500 µM at KMT9 [1] (setting [4]) is no more than 10 °C. In addition, the Kd at KMT9 [2] (Kd class, read-out: MST) fell in the range of 100 to 1000 nM. For the same compound, the IC50 at KMT9 [3] (setting [5]) fell in the range of 1 to 10 µM.
Turning to `O[C@@H]1[C@H](O)[C@@H](C2=CCCN(C3CC3)C2)C[C@H]1n1cc(-c2nc(Cc3ccccc3)cs2)c2cnc(Cl)nc21` [Compound 587, (1R,2S,3R,5R)-3-[5-(4-Benzyl-1,3-thiazol-2-yl)-2-chloropyrrolo[2,3-d]pyrimidin-7-yl]-5-(1-cyclopropyl-5,6-dihydro-2H-pyridin-3-yl)cyclopentane-1,2-diol], at KMT9 [1] (setting [4]), the ΔTm at 500 µM is no more than 10 °C. Further, the Kd on KMT9 [2] (Kd class, read-out: MST) was greater than 1000 nM. In addition, the IC50 on KMT9 [3] (setting [5]) was greater than 10 µM.
For `O[C@@H]1[C@H](O)[C@@H](C2=CCCN(CCc3ccccc3)C2)C[C@H]1n1cc(-c2nc(Cc3ccccc3)cs2)c2cnc(Cl)nc21` [Compound 588, (1R,2S,3R,5R)-3-[5-(4-Benzyl-1,3-thiazol-2-yl)-2-chloropyrrolo[2,3-d]pyrimidin-7-yl]-5-[1-(2-phenylethyl)-5,6-dihydro-2H-pyridin-3-yl]cyclopentane-1,2-diol] the same measures were no more than 10 °C, greater than 1000 nM and greater than 10 µM.
With `Nc1ncnc2c1c(-c1nc(Cc3ccccc3)cs1)cn2[C@@H]1C[C@H]([C@H]2CCNC2)[C@@H](O)[C@H]1O` [Compound 589R, (1R,2S,3R,5R)-3-[4-Amino-5-(4-benzyl-1,3-thiazol-2-yl)pyrrolo[2,3-d]pyrimidin-7-yl]-5-[(3R)-pyrrolidin-3-yl]cyclopentane-1,2-diol], the ΔTm at 500 µM at KMT9 [1] (setting [4]) lay within 10 to 15 °C. For the same compound, the Kd at KMT9 [2] (Kd class, read-out: MST) is 100 to 1000 nM. Moreover, at KMT9 [3] (setting [5]), the IC50 was 1 to 10 µM.
For `Nc1ncnc2c1c(-c1nc(Cc3ccccc3)cs1)cn2[C@@H]1C[C@H]([C@@H]2CCNC2)[C@@H](O)[C@H]1O` [Compound 589S, (1R,2S,3R,5R)-3-[4-Amino-5-(4-benzyl-1,3-thiazol-2-yl)pyrrolo[2,3-d]pyrimidin-7-yl]-5-[(3S)-pyrrolidin-3-yl]cyclopentane-1,2-diol] the same measures were 10 to 15 °C, 100 to 1000 nM and 1 to 10 µM.
Take `Nc1nc(Cl)nc2c1ccn2[C@@H]1C[C@H](c2ccc(=O)[nH]c2)[C@@H](O)[C@H]1O` [Compound 590, 5-[(1R,2R,3S,4R)-4-{4-Amino-2-chloropyrrolo[2,3-d]pyrimidin-7-yl}-2,3-dihydroxycyclopentyl]-1H-pyridin-2-one]: the ΔTm at 500 µM at KMT9 [1] (setting [6]) was no more than 10 °C. In addition, the Kd at KMT9 [2] (read-out: MST (Kd)) fell in the range of 100 to 1000 nM. The IC50 at KMT9 [3] (setting [7]) lay within 1 to 10 µM.
In the same order, the values of `COc1ccc([C@H]2C[C@@H](n3ccc4c(N)nc(Cl)nc43)[C@H](O)[C@@H]2O)cn1` [Compound 591, (1R,2S,3R,5R)-3-{4-amino-2-chloropyrrolo[2,3-d]pyrimidin-7-yl}-5-(6-methoxypyridin-3-yl)cyclopentane-1,2-diol] are 10 to 15 °C, 10 to 100 nM and 0.1 to 1 µM.
For `NCCc1cccc([C@H]2C[C@@H](n3ccc4c(N)ncnc43)[C@H](O)[C@@H]2O)c1` [Compound 592, (1S,2R,3R,5R)-3-[3-(2-Aminoethyl)phenyl]-5-{4-aminopyrrolo[2,3-d]pyrimidin-7-yl}cyclopentane-1,2-diol] the same measures were no more than 10 °C, greater than 1000 nM and 1 to 10 µM.
